A word on the LD50: it is the dose at which mortality reaches 50%. Higher therefore signals a less toxic substance.

Entries after “also recorded” stand apart in the source; their conditions may differ.

Data set [1] can be described thus: Subcutaneous Pentylenetetrazol (Metrazol) Seizure Threshold Test. Format: in vivo, male Carworth Farms #1 mice or Sprague-Dawley rats. Particulars: for Protection against Metrazol-induced seizures (in words): running text; for Anticonvulsant activity, Metrazol: Table VI.
A short description of data set [2]: Anticonvulsant activity, both or unspecified seizure models. Format: in vivo, male Carworth Farms #1 mice or Sprague-Dawley rats. Particulars: running text.
The nature of data set [3]: Lethality / acute toxicity (LD50 in 24 hours).
Excerpt: Test compounds were either dissolved in 0.9% saline, or suspended in either 30% polyethylene glycol 400 in 0.9% saline or 0.2% suspending agent like polyoxyethylene glycol or Tween 80 in 0.9% saline prior to injection into male Carworth Farms #1 mice or Sprague-Dawley rats.
In Phase I identification of anticonvulsant activity, test compounds were given intraperitoneally (IP) at 30, 100, 300 and, in some cases, 600 milligrams per kilogram (mg/kg) of body weight and protection against Maximal Electroshock and/or Metrazol-induced seizures was determined 30 minutes, 4 hours, or later. […] Subsequently the routine protocol was modified and certain of the test compounds (see Tables, infra) re-evaluated following subcutaneous (SC) injection at periods of up to 8 hours post injection.
All statistics were obtained by probit analyses.
Data set [4] can be described thus: Rotating rod neurotoxicity. The following applies: dose and time given in the source.
Data set [5] is described as follows: Maximal Electroshock Seizure Test. Format: in vivo, male Carworth Farms #1 mice or Sprague-Dawley rats. Particulars: for Anticonvulsant activity, Maximal Electroshock: Table VI. For orientation: Protection in the maximal electroshock model is a classic sign of anticonvulsant action.
Data set [6] can be described thus: Sleep time / hypnosis or sedation. Format: in vivo. Particulars: Table IX; intraperitoneal; 65 mg/kg; 5 animals.
Description: In Phase I identification of anticonvulsant activity, test compounds were given intraperitoneally (IP) at 30, 100, 300 and, in some cases, 600 milligrams per kilogram (mg/kg) of body weight and protection against Maximal Electroshock and/or Metrazol-induced seizures was determined 30 minutes, 4 hours, or later. […] Subsequently the routine protocol was modified and certain of the test compounds (see Tables, infra) re-evaluated following subcutaneous (SC) injection at periods of up to 8 hours post injection. Subcutaneous administration can be helpful in determining whether or not hypnotic activity can be distinguished from anticonvulsant activity based upon the decreased rate of absorption associated with this route of administration as opposed to the more rapid rate of absorption associated with IP administration.
For data set [7] the following is noted: 50, 100 and 300 mg/kg at 0.75, 1.5 and 3 hours post subcutaneous injection at a site different from Metrazol; cited from earlier work.
Setting [8] is: SC at site different from injection of Metrazol.

On to `CC(=O)Nc1ccc(C(=O)[O-])c(O)c1.CC(=O)Nc1ccc(C(=O)[O-])c(O)c1.[Cu+2]` [Cu(II)(4-acetylaminosalicylate)2], for which, in data set [1] (Table II, IP), the “Anticonvulsant activity, Metrazol (Phase I)” value was “I”. The “Anticonvulsant activity (in words)” value in data set [2] is on record as “effective in preventing seizures”. The “Lethality (in words)” value in data set [3] (route, dose and time given in the source) is on record as “Lethal at 100 mg/kg at 4 hours”.
In the case of `CC(=O)CC(C)=NCCN=C(C)CC(C)=O.[Cu]` [Cu(II) Bisacetylacetonethyleneimine], the “Rotating rod toxicity (in words)” value in data set [4] (listed as bisacetylacetonethyleneimine complex) is “rotating rod toxicity, which may also have been due to hypnotic activity, was found at the higher doses studied”. Also, in data set [2], the “Anticonvulsant activity (in words)” value was “effective in preventing both Maximal Electroshock and Metrazol-induced seizures”.
Take Cu(II)2 (phenylacetate)4: the “Protection against Metrazol-induced seizures (in words)” value in data set [1] was “effective in protecting against Metrazol-induced seizures”. Further, the “Rotating rod toxicity (in words)” value in data set [4] is listed as “Rotating rod toxicity at 300 mg/kg”.
On to `C1CCc2nnnn2CC1.[Cl-].[Cl-].[Cu+2]` [Cu(II)(Metrazol)Cl2], for which, in data set [4], the “Rotating rod toxicity (in words)” value is recorded as “no rotating rod toxicity at doses up to 600 mg/kg”. For the same molecule, the “Anticonvulsant activity (in words)” value in data set [2] is “some anticonvulsant activity when injected at a site different from the site of Metrazol injection”. The “Anticonvulsant activity, Maximal Electroshock” value in data set [5] (IP) and in data set [5] (setting [8]) was “I” in each case.
`CCC1(CCC(C)C)C(=O)NC(=O)NC1=O` [Na amobarbital, sodium (Na) amobarbital, reference compound]: the “Average Sleep Time” value in data set [6] was determined as 0 min. In addition, in data set [5] (Table IX, maximal electroshock, intraperitoneal, 65 mg/kg, 5 animals), the “Protection Against Seizure” value came to 0 Percent protected.
Take `[Cl][Cu][Cl]` [copper chloride]: in data set [7], the “Anticonvulsant activity reported previously (in words)” value is recorded as “no anticonvulsant activity”.
Consider `O=C(O)c1ccccc1[O-].O=C(O)c1ccccc1[O-].[Cu+2]` [Cu(II)(salicylate)2], for which the “ED50 for protection against Metrazol-induced seizures” value in data set [1] (Phase II, SC) amounted to 38 mg/kg. For the same molecule, the “Time of peak effect, inhibition of Metrazol-induced seizures” value in data set [1] (SC, 100 mg/kg, Phase II) was 2 h. Moreover, in data set [1], the “Protection against Metrazol-induced seizures (in words)” value is given as “rapid onset of protection against the Metrazol-induced seizure which decreases over the extrapolated period of 7 hours”. In data set [2], the “Anticonvulsant activity (in words)” value was “effective at the higher doses studied and for prolonged periods of up to 4 hours”. The LD50 in data set [3] (24-hour, Phase II) was determined as 441 mg/kg. Moreover, in data set [5] (Phase II, SC), the “ED50 for protection against Maximal Electroshock-induced seizures” value is on record as 360 mg/kg. The “Time of peak effect, inhibition of Maximal Electroshock induced seizures” value in data set [5] (SC, 600 mg/kg, Phase II) was 7 h. Moreover, the “Inhibition of Maximal Electroshock-induced seizure” value in data set [5] (SC, 600 mg/kg, at 24 hours, Phase II) turned out to be 37%. For the same molecule, in data set [5] (Table II, SC), the “Anticonvulsant activity, Maximal Electroshock (Phase I)” value is given as “I”. For the same molecule, in data set [5] (running text), the “Protection against Maximal Electroshock-induced seizures (in words)” value is “onset of protection against Maximal Electroshock-induced seizure was slower but the activity was prolonged over the 24-hour period; also recorded: inactive in protecting against the Maximal Electroshock-induced seizure in routine Phase I studies; also recorded: active in protecting against this seizure when higher doses were used and the activity was evaluated at different time periods”.
Turning to Copper acetate [Cu(II)2 (acetate)4], the “Anticonvulsant activity, Metrazol” value in data set [1] (setting [8]) and in data set [1] (intragastric) was “I” throughout. The “Lowest dose with activity against Metrazol-induced seizures” value in data set [1] (intraperitoneal (copper acetate: site different from Metrazol)) stood at 5 mg/kg. The “Protection against Metrazol-induced seizures (in words)” value in data set [1] was “effective in inhibiting Metrazol-induced seizures”. The “Anticonvulsant activity reported previously (in words)” value in data set [7] was “no anticonvulsant activity”. The “Anticonvulsant activity (in words)” value in data set [2] was “active when injected at the same site as the site of Metrazol injection; also recorded: lack of anticonvulsant activity”; in data set [2] (listed as copper acetate), “inactive when administered orally”. For the same molecule, the “Anticonvulsant activity, Maximal Electroshock” value is given as “I” in data set [5] (IP); “I” in data set [5] (SC, same injection site used for injection of Metrazol); “I” in data set [5] (intragastric).

These data come from patent US4758555A, “Method for treating convulsions and epilepsy with organic copper compounds” (priority 1986, dated 1988).
